Measured values reported in patent US7402548B2, “Benzoxazole compounds, process for producing the same and herbicides” (Kyoyu Agri Co., Ltd., priority 2000, dated 2008).

Columns and labels:
monochoria = test: Herbicidal test for paddy field; format: in vivo, Monochoria vaginalis; conditions: 500 g/ha, dropwise addition to paddy water at 1.5 leaf stage of barnyard grass; glass house 25° C., 3 weeks; rank 0-5 vs non-treated district
Method: (§1) Wagner pots, each having an area of 1/5000 are, were packed with Ube soil (alluvial soil) and planted with seeds or tubers of young rice plant, barnyard grass, bulrush, Cyperus serotinus Rottb., arrowhead and monochoria. Then, the pots were filled with water to a depth of 3 cm.
(§2) Each wettable powder of the desired Compounds (I) shown in Tables 1 to 21, 24, 25, 28 and 29 prepared in accordance with Example 2 was diluted with water containing a surfactant (0.05%) and subjected to dropwise addition treatment by using pipet so that an effective concentration of the compound (I) in each herbicide became 500 g/ha at 1.5 leaf stage of barnyard grass.
(§3) These plants were controlled in a glass house at an average temperature of 25° C. for 3 weeks, and then herbicidal effects thereof were investigated.
(§4) The herbicidal effects are evaluated according to the following 6 ranks as compared with non-treated district. (0: normal development, 1: Less damaged, 2: Slightly damaged, 3: Moderately damaged, 4: Severely damaged, 5: All killed). Incidentally, “-” in the column means not investigated.

livid amaranth [1] = test: Foliar spread test for upland field; format: in vivo, Amaranthus lividus; set-up: key: 0 = normal development, 5 = all killed (6 ranks vs. untreated); conditions: foliar spray, 500 ppm, 3 weeks, glass house 25° C.
How it was run: (§5)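 Seeds were sown in volcanic ash soil in Wagner pots and grown about 2 weeks in a glass house at an average 25° C. Wettable-powder formulations diluted to 500 ppm in water with 0.5% surfactant were sprayed uniformly over the plants. After 3 further weeks at 25° C, damage was scored 0 (normal) to 5 (all killed) against untreated plants.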

wheat [2] = test: Foliar spread test for upland field; format: in vivo; set-up: key: 0 = normal development, 5 = all killed (6 ranks vs. untreated); conditions: foliar spray, 500 ppm, 3 weeks, glass house 25° C.
How it was run: as §5

barnyard grass [3] = test: Soil treatment test for upland field; format: in vivo, Eschinochloa crusgalli; set-up: key: 0 = normal development, 5 = all killed; conditions: 500 g/ha, 3 weeks, glass house 25° C.
How it was run: (§6)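 Read-out is a six-rank visual damage score, from 0 for normal development to 5 for all plants killed, relative to untreated pots. It is taken 3 weeks after the compound, as wettable powder at 500 g/ha, is sprayed onto freshly seeded alluvial soil.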

livid amaranth [4] = test: Soil treatment test for upland field; format: in vivo, Amaranthus lividus; set-up: key: 0 = normal development, 5 = all killed; conditions: 500 g/ha, 3 weeks, glass house 25° C.
How it was run: as §6

corn = test: Soil treatment test for upland field; format: in vivo; set-up: key: 0 = normal development, 5 = all killed; conditions: 500 g/ha, 3 weeks, glass house 25° C.
How it was run: as §6

wheat [5] = test: Soil treatment test for upland field; format: in vivo; set-up: key: 0 = normal development, 5 = all killed; conditions: 500 g/ha, 3 weeks, glass house 25° C.
How it was run: as §6

annual bluegrass = test: Soil treatment test for upland field; format: in vivo, Poa annua; set-up: key: 0 = normal development, 5 = all killed; conditions: 500 g/ha, 3 weeks, glass house 25° C.
How it was run: as §6

barnyard grass [6] = test: Herbicidal test for paddy field; format: in vivo, Eschinochloa crusgalli; conditions: 500 g/ha, dropwise addition to paddy water at 1.5 leaf stage of barnyard grass; glass house 25° C., 3 weeks; rank 0-5 vs non-treated district
Method: as §1, §2, §3, §4

green foxtail = test: Soil treatment test for upland field; format: in vivo, Setaria viridis; set-up: key: 0 = normal development, 5 = all killed; conditions: 500 g/ha, 3 weeks, glass house 25° C.
How it was run: as §6

common lambsquarters [7] = test: Foliar spread test for upland field; format: in vivo, Chenopodium album; set-up: key: 0 = normal development, 5 = all killed (6 ranks vs. untreated); conditions: foliar spray, 500 ppm, 3 weeks, glass house 25° C.
How it was run: as §5

common lambsquarters [8] = test: Soil treatment test for upland field; format: in vivo, Chenopodium album; set-up: key: 0 = normal development, 5 = all killed; conditions: 500 g/ha, 3 weeks, glass house 25° C.
How it was run: as §6

Large crabgrass = test: Soil treatment test for upland field; format: in vivo, Digitaria adscendens; set-up: key: 0 = normal development, 5 = all killed; conditions: 500 g/ha, 3 weeks, glass house 25° C.
How it was run: as §6

SMILES | Effects Monochoria (monochoria) | Effects Livid amaranth (livid amaranth [1]) | Effects Wheat (wheat [2]) | Effects Barnyardgrass (barnyard grass [3]) | Effects Livid amaranth (livid amaranth [4]) | Effects Corn (corn) | Effects Wheat (wheat [5]) | Effects Annual bluegrass (annual bluegrass) | Effects Barnyardgrass (barnyard grass [6]) | Effects Green foxtail (green foxtail) | Effects Common lambsquarters (common lambsquarters [7]) | Effects Common lambsquarters (common lambsquarters [8]) | Effects Large crabgrass (Large crabgrass)
CCC(Oc1cc(C(F)(F)F)nn1C)c1nc2cc(C#N)c(Cl)cc2o1 (stereo not shown) [Compound 1-e-11] | 4 | 5 | 1 | 4 | 5 | 0 | 0 | 5 | 4 | 5 | 5 | 5 | 5
CCC(Oc1cc(C)nc(SC)n1)c1nc2cc(Cl)ccc2o1 (stereo not shown) [Compound 1-e-64] | 4 | – | – | – | – | – | – | – | – | – | – | – | –
CCC(Oc1cc(C(F)(F)F)ncn1)c1nc2cc(Cl)ccc2o1 (stereo not shown) [Compound 1-e-66] | 5 | – | – | – | – | – | – | – | 2 | – | – | – | –
